Results on 27 compounds are retold here after patent publication US7435837B2, “Dihydrobenzofuranyl alkanamine derivatives and methods for using same” (Wyeth, priority 2003, dated 2008).

The target in assay [1] is T1, human 5-hydroxytryptamine-2C (h5-HT2C) receptor (Homo sapiens, UniProt P28335).
T1 construct: expressed in transfected cells; host or cells: CHO (Chinese Hamster Ovary) cells; membranes
T1 sequence (P28335 33-458): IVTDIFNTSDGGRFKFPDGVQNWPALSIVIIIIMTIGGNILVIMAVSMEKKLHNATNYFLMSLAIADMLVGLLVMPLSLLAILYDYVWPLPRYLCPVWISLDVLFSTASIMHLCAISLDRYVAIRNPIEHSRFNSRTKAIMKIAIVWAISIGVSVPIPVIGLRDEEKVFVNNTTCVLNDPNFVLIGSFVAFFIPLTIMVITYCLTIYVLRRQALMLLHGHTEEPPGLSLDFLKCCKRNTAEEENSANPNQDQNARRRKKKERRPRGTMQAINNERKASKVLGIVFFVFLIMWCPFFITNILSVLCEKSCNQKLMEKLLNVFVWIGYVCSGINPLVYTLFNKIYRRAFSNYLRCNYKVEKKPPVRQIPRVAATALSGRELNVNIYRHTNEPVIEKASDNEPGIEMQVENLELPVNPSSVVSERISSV
The experiment in a line: [125I]DOI binding to membranes of CHO cells expressing the human 5-HT2C receptor. The conditions noted are these: [125I]DOI radioligand, CHO cell membranes, room temperature 60 min; read-out: 5-HT2C Affinity Ki.

The next assay has as its target T2, human 5-HT2C receptor (Homo sapiens, UniProt P28335).
T2 sequence (P28335 33-458): T1 sequence (P28335 33-458)
As to the kind of experiment: 5-HT2C receptor-stimulated calcium mobilization (FLIPR) in CHO cells.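 For all read-outs here: Fluo-3-AM fluorescence read on FLIPR every 1 s, agonist added after 10 baseline reads, response taken as peak minus lowest raw fluorescence count.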 It counts as cell-based. The conditions noted are these: for Emax: CHO, read-out: 5-HT2C Function Emax (%); for Emax / 5-HT2C Function Emax (%): percentage of the response observed with a maximally effective concentration of 5-HT; for EC50: calcium mobilization, CHO cells stably expressing human 5-HT2C, read-out: 5-HT2C Function EC50. On the technique in general: Calcium flux is commonly read through the fluorescence of an indicator in the cells.

SMILES strings stand for the structures.

By Ki is commonly meant the equilibrium dissociation constant of an inhibitor or competing ligand from its target. As usually defined, the Emax is the greatest response seen or fitted, relative to the assay's reference. The term EC50 denotes the midpoint of the concentration-response curve.

Regarding `COc1ccc(OC)c(-c2cc(F)cc3c2OC(CN)C3)c1` (racemic) [Example 223, (±)-{[7-(2,5-dimethoxyphenyl)-5-fluoro-2,3-dihydro-1-benzofuran-2-yl]methyl}amine], the inhibition constant (Ki) in assay [1] was 10 nM. On human 5-HT2C receptor, the Emax amounted to 80% and the EC50 amounted to 30 nM.
Turning to `NCC1Cc2ccc(F)c(-c3ccccc3Cl)c2O1` (racemic) [Example 398, (±)-{[7-(2-chlorophenyl)-6-fluoro-2,3-dihydro-1-benzofuran-2-yl]methyl}amine], the Ki in assay [1] came to 0.04 nM. Besides, at human 5-HT2C receptor, the Emax turned out to be 100% and the EC50 was 0.1 nM.
Consider `CNCC1Cc2cccc(-c3ccccc3C)c2O1` (single isomer, unassigned; (+)) [Example 408, (+)-N-methyl-1-[7-(2-methylphenyl)-2,3-dihydro-1-benzofuran-2-yl]methanamine], for which, in assay [1], the Ki amounted to 0.46 nM. Further, on human 5-HT2C receptor, the half-maximal effective concentration (EC50) turned out to be 6 nM and the “5-HT2C Function Emax (%)” value is listed as 90%.
In the same order, the values of `CNCC1Cc2cccc(-c3ccccc3C)c2O1` (single isomer, unassigned; (-)) [Example 407, (−)-N-methyl-1-[7-(2-methylphenyl)-2,3-dihydro-1-benzofuran-2-yl]methanamine] are 8.5 nM, 149 nM and 60%.
For `Cc1cc2c(c(-c3c(Cl)cccc3Cl)c1)OC(CN)C2` (racemic) [Example 302, (±)-{[7-(2,6-dichlorophenyl)-5-methyl-2,3-dihydro-1-benzofuran-2-yl]methyl}amine], the inhibitory constant (Ki) in assay [1] came to 0.3 nM. At human 5-HT2C receptor, the maximum response (Emax) stood at 100% and the EC50 came out at 2 nM.
Consider `CNCC1Cc2cc(F)cc(-c3cc(Cl)ccc3Cl)c2O1` (single isomer, unassigned; (-)) [Example 451, (−)-{[5-fluoro-7-(2,5-dichlorophenyl)-2,3-dihydro-1-benzofuran-2-yl]methyl}methylamine], for which the Ki in assay [1] is 0.31 nM. Besides, at human 5-HT2C receptor, the concentration giving a half-maximal response (EC50) was found to be 137 nM and the “5-HT2C Function Emax (%)” value is given as 80%.
Consider `NCC1Cc2cc(C(F)(F)F)cc(-c3ccccc3Cl)c2O1` (racemic) [Example 315, (±)-{[5-(trifluoromethyl)-7-(2-chlorophenyl)-2,3-dihydro-1-benzofuran-2-yl]methyl}amine], for which the inhibition constant Ki in assay [1] was found to be 25 nM. At human 5-HT2C receptor, the maximal response (Emax) is 90% and the concentration giving a half-maximal response (EC50) was 19 nM.
Taken in the same sequence, the figures for `NCC1Cc2cc(F)cc(-c3cccc(Cl)c3Cl)c2O1` (racemic) [Example 211, (±)-{[7-(2,3-dichlorophenyl)-5-fluoro-2,3-dihydro-1-benzofuran-2-yl]methyl}amine] were 19 nM, 70% and 672 nM.
In the same order, the values of `NCC1Cc2cc(C(F)(F)F)cc(-c3ccc(F)cc3F)c2O1` (racemic) [Example 332, (±)-{[7-(2,4-difluorophenyl)-5-(trifluoromethyl)-2,3-dihydro-1-benzofuran-2-yl]methyl}amine] are 37 nM, 80% and 111 nM.
For the compound `Cc1c(Cl)cc(C(C)C)c2c1CC(CN)O2` (single isomer, unassigned; (+)) [Example 23, (+)-1-(5-chloro-7-isopropyl-4-methyl-2,3-dihydro-1-benzofuran-2-yl)methanamine], in assay [1], the Ki was found to be 9 nM. On human 5-HT2C receptor, the half-maximal effective concentration (EC50) came to 73 nM and the “5-HT2C Function Emax (%)” value came to 80%.
As to `COc1ccc(-c2cccc3c2OC(CN)C3)cc1` (single isomer, unassigned; (+)) [Example 80, (+)-1-[7-(4-methoxyphenyl)-2,3-dihydro-1-benzofuran-2-yl]methanamine], the Ki in assay [1] turned out to be 1 nM. Besides, on human 5-HT2C receptor, the EC50 was found to be 17 nM and the “5-HT2C Function Emax (%)” value stood at 90%.
In the case of `Cc1c(Cl)cc(C(C)C)c2c1CC(CN)O2` (single isomer, unassigned; (-)) [Example 22, (−)-1-(5-chloro-7-isopropyl-4-methyl-2,3-dihydro-1-benzofuran-2-yl)methanamine], the inhibitory constant (Ki) in assay [1] amounted to 5 nM. Further, at human 5-HT2C receptor, the maximal effect (Emax) was 90% and the 50% effective concentration (EC50) amounted to 25 nM.
As to `CNCC1Cc2cc(C)cc(-c3cc(Cl)ccc3Cl)c2O1` (racemic) [Example 486, (±)-{[7-(2,5-dichlorophenyl)-5-methyl-2,3-dihydro-1-benzofuran-2-yl]methyl}methylamine], the inhibitory constant (Ki) in assay [1] was 0.2 nM. Further, at human 5-HT2C receptor, the Emax is 90% and the concentration for a half-maximal effect (EC50) came out at 5 nM.
For `NCC1Cc2cc(F)cc(-c3ccccc3F)c2O1` (racemic) [Example 107, (±)-1-[5-fluoro-7-(2-fluorophenyl)-2,3-dihydro-1-benzofuran-2-yl]methanamine], in assay [1], the inhibition constant (Ki) was found to be 1 nM. For the same compound, on human 5-HT2C receptor, the Emax was found to be 100% and the EC50 stood at 93 nM.
As to `COc1ccc(-c2cccc3c2OC(CN)C3)cc1` (racemic) [Example 79, (±)-1-[7-(4-methoxyphenyl)-2,3-dihydro-1-benzofuran-2-yl]methanamine], the Ki in assay [1] stood at 2 nM. Moreover, on human 5-HT2C receptor, the Emax came out at 95% and the concentration for a half-maximal effect (EC50) came out at 24 nM.
As to `Cc1ccccc1-c1cc(C(F)(F)F)cc2c1OC(CN)C2` (racemic) [Example 314, (±)-{[5-(trifluoromethyl)-7-(2-methylphenyl)-2,3-dihydro-1-benzofuran-2-yl]methyl}amine], the inhibition constant (Ki) in assay [1] came out at 18 nM. Moreover, at human 5-HT2C receptor, the Emax amounted to 90% and the EC50 was 42 nM.
In the same order, the values of `Cc1cccc(-c2cccc3c2OC(CN)C3)c1` (single isomer, unassigned; (+)) [Example 42, (+)-1-[7-(3-methylphenyl)-2,3-dihydro-1-benzofuran-2-yl]methanamine] are 17 nM, 100% and 162 nM.
As to `COc1ccc(Cl)cc1-c1cc(Cl)cc2c1OC(CN)C2` (racemic) [Example 257, (±)-{[5-chloro-7-(5-chloro-2-methoxyphenyl)-2,3-dihydro-1-benzofuran-2-yl]methyl}amine], the inhibition constant (Ki) in assay [1] amounted to 28 nM. On human 5-HT2C receptor, the Emax was 80% and the EC50 is 194 nM.
Regarding `NCC1Cc2cccc(-c3ccc(C(F)(F)F)cc3)c2O1` (single isomer, unassigned; (+)) [Example 137, (+)-1-{7-[4-(trifluoromethyl)phenyl]-2,3-dihydro-1-benzofuran-2-yl}methanamine], the Ki in assay [1] worked out at 1.2 nM. Moreover, on human 5-HT2C receptor, the EC50 was determined as 473 nM and the “5-HT2C Function Emax (%)” value is 90%.
On to `NCC1Cc2cccc(-c3ccccc3Cl)c2O1` (single isomer, unassigned; (+)) [Example 130, (+)-1-[7-(2-chlorophenyl)-2,3-dihydro-1-benzofuran-2-yl]methanamine], for which the inhibition constant (Ki) in assay [1] is 4.8 nM. At human 5-HT2C receptor, the concentration for a half-maximal effect (EC50) stood at 54 nM and the “5-HT2C Function Emax (%)” value came to 80%.
`CNCC1Cc2cc(F)cc(-c3ccccc3OC)c2O1` (racemic) [Example 443, (±)-{[5-fluoro-7-(2-methoxyphenyl)-2,3-dihydro-1-benzofuran-2-yl]methyl}methylamine]: the inhibition constant Ki in assay [1] was found to be 4.8 nM. On human 5-HT2C receptor, the maximum response (Emax) was 90% and the concentration for a half-maximal effect (EC50) is 5 nM.
Taken in the same sequence, the figures for `CNCC1Cc2cc(C)cc(-c3ccc(OC)cc3)c2O1` (racemic) [Example 483, (±)-{[7-(4-methoxyphenyl)-5-methyl-2,3-dihydro-1-benzofuran-2-yl]methyl}methylamine] were 5 nM, 80% and 58 nM.
Turning to `COc1ccc(-c2cccc3c2OC(CN)C3)c(OC)c1` (single isomer, unassigned; (-)) [Example 144, (−)-1-[7-(2,4-dimethoxyphenyl)-2,3-dihydro-1-benzofuran-2-yl]methanamine], in assay [1], the Ki came to 6.1 nM. In addition, on human 5-HT2C receptor, the maximal response (Emax) turned out to be 90% and the EC50 came out at 4 nM.
In the same order, the values of `NCC1Cc2c(F)c(F)cc(-c3ccccc3)c2O1` (racemic) [Example 109, (±)-(4,5-difluoro-7-phenyl-2,3-dihydro-1-benzofuran-2-yl)methylamine] are 25 nM, 40% and 3220 nM.
With `NCC1Cc2cc(Cl)cc(-c3ccccc3Cl)c2O1` (racemic) [Example 87, (±)-1-[5-chloro-7-(2-chlorophenyl)-2,3-dihydro-1-benzofuran-2-yl]methanamine], the Ki in assay [1] is 0.8 nM. For the same compound, at human 5-HT2C receptor, the Emax is 90% and the 50% effective concentration (EC50) is 20 nM.
`Cc1ccc(-c2cc(F)cc3c2OC(CN)C3)cc1` (racemic) [Example 201, (±)-{[5-fluoro-7-(4-methylphenyl)-2,3-dihydro-1-benzofuran-2-yl]methyl}amine]: in assay [1], the inhibitory constant (Ki) is 8 nM. Moreover, at human 5-HT2C receptor, the maximum response (Emax) amounted to 80% and the EC50 is 396 nM.
For `Cc1ccc(-c2cccc3c2OC(CN)C3)cc1` (single isomer, unassigned; (+)) [Example 71, (+)-1-[7-(4-methylphenyl)-2,3-dihydro-1-benzofuran-2-yl]methanamine], the Ki in assay [1] was determined as 1 nM. Further, at human 5-HT2C receptor, the Emax is 100% and the EC50 was 1.4 nM.
